Data published in patent publication US9676788B2, “Aza-epoxy-guaiane derivatives and treatment of cancer” (The United States of America, as represented by the …, priority 2014, dated 2017).
Values joined by “and” are separate entries in the source; they are usually repeats but may differ in a detail not shown here. Equal values may be shown once. Read-outs that look alike come from different tables or passages of the source.

Legend:
ACHN (renal cancer) = assay: NCI 60-cell line protocol, Renal Cancer ACHN; assay type: cell-based, human; conditions: SRB endpoint; for GI50: Homo sapiens, ACHN, 48 h, five 10-fold dilutions, two days exposure; for ACHN one dose (%): one-dose protocol, single final concentration of 10 micromolar, two days
[1] = Plasma concentration in mice over time after oral gavage (LC-MS/MS); assay type: in vivo
Method: Ten mice were administered 50 mg/kg of compound 9 in Labrasol vehicle via oral gavage. Two mice at a time were sacrificed at the following time points: 5 min, 15 min, 1 h, 4 h, and 8 h. Plasma concentrations of compound 9 were measured by LC-MS/MS, and the results set forth in Table 4 and depicted graphically in FIG. 7.
It was subsequently discovered that an error was made in weighing out compound 9 for formulation of a 5 mg/mL solution in Labrasol. The underweight formulation was confirmed to be about 40% of the expected concentration.

A498 (renal cancer) = assay: NCI 60-cell line protocol, Renal Cancer A498; assay type: cell-based, human; conditions: SRB endpoint; for GI50: Homo sapiens, A498, 48 h, five 10-fold dilutions, two days exposure; for A498 one dose (%): one-dose protocol, single final concentration of 10 micromolar, two days
[2] = Plasma concentration in mice 30 minutes after oral gavage, by dose (LC-MS); assay type: in vivo
Method: Mice were dosed at 5 mg/kg, 10 mg/kg, 50 mg/kg, and 100 mg/kg compound 9 in Labrasol vehicle via oral gavage. 30 minutes after dosing, plasma was assayed for the concentration of compound 9 using LC-MS. The results are depicted graphically in FIG. 5.

HS 578T (breast cancer) = assay: NCI 60-cell line protocol, Breast Cancer HS 578T; assay type: cell-based, human; conditions: SRB endpoint; for GI50: Homo sapiens, Hs-578T, 48 h, five 10-fold dilutions, two days exposure; for HS 578T one dose (%): one-dose protocol, single final concentration of 10 micromolar, two days
CCRF-CEM = assay: NCI 60-cell line protocol, Leukemia CCRF-CEM; conditions: single dose 10 μM, two days exposure, SRB endpoint
Method: (§1) Samples were tested in the standard National Cancer Institute 60-cell line protocol. First, they were tested against all 60 cell lines in a single final concentration of 10 micromolar. Then, they were separately tested in five 10-fold dilutions. The drug exposure was for two days, with an SRB endpoint.
(§2) Samples were tested in the standard National Cancer Institute 60-cell line protocol. The dosing protocol was a single dose of the compound at 10 μM concentration.

SK-MEL-5 = assay: NCI 60-cell line protocol, Melanoma SK-MEL-5; conditions: SK-MEL-5 (Melanoma); single dose 10 μM; two days exposure; SRB endpoint
Method: as §1, §2

UACC-62 = assay: NCI 60-cell line protocol, Melanoma UACC-62; conditions: UACC-62 (Melanoma); single dose 10 μM; two days exposure; SRB endpoint
Method: as §1, §2

MDA-MB-435 = assay: NCI 60-cell line protocol, Melanoma MDA-MB-435; conditions: MDA-MB-435 (Melanoma); single dose 10 μM; two days exposure; SRB endpoint
Method: as §1, §2

UACC-257 = assay: NCI 60-cell line protocol, Melanoma UACC-257; conditions: UACC-257 (Melanoma); single dose 10 μM; two days exposure; SRB endpoint
Method: as §1, §2

SK-MEL-2 = assay: NCI 60-cell line protocol, Melanoma SK-MEL-2; conditions: SK-MEL-2 (Melanoma); single dose 10 μM; two days exposure; SRB endpoint
Method: as §1, §2

SK-MEL-28 = assay: NCI 60-cell line protocol, Melanoma SK-MEL-28; conditions: SK-MEL-28 (Melanoma); single dose 10 μM; two days exposure; SRB endpoint
Method: as §1, §2

SA = assay: NCI 60-cell line protocol, Leukemia SA; assay type: cell-based, human; conditions: single dose 10 μM, two days exposure, SRB endpoint
LOX IMVI = assay: NCI 60-cell line protocol, Melanoma LOX IMVI; conditions: single dose 10 μM, two days exposure, SRB endpoint
Method: as §1, §2

RPMI-8226 = assay: NCI 60-cell line protocol, Leukemia RPMI-8226; conditions: RPMI-8226 (Leukemia); single dose 10 μM; two days exposure; SRB endpoint
Method: as §1, §2

M14 = assay: NCI 60-cell line protocol, Melanoma M14; conditions: single dose 10 μM, two days exposure, SRB endpoint
Method: as §1, §2

K-562 = assay: NCI 60-cell line protocol, Leukemia K-562; conditions: K-562 (Leukemia); single dose 10 μM; two days exposure; SRB endpoint
Method: as §1, §2

MALME-3M = assay: NCI 60-cell line protocol, Melanoma MALME-3M; conditions: MALME-3M (Melanoma); single dose 10 μM; two days exposure; SRB endpoint
Method: as §1, §2

MOLT-4 = assay: NCI 60-cell line protocol, Leukemia MOLT-4; assay type: cell-based, human; conditions: MOLT-4 (Leukemia); single dose 10 μM; two days exposure; SRB endpoint
HL-60(fB) = assay: NCI 60-cell line protocol, Leukemia HL-60(fB); assay type: cell-based, human; conditions: HL-60(fB) (Leukemia); single dose 10 μM; two days exposure; SRB endpoint

SMILES | GI50 (ACHN (renal cancer)) | ACHN one dose (%) (ACHN (renal cancer)) | GI50 (A498 (renal cancer)) | A498 one dose (%) (A498 (renal cancer)) | GI50 (HS 578T (breast cancer)) | HS 578T one dose (%) (HS 578T (breast cancer)) | Growth Percent (CCRF-CEM) | Growth Percent (SK-MEL-5) | Growth Percent (UACC-62) | Growth Percent (MDA-MB-435) | Growth Percent (UACC-257) | Growth Percent (SK-MEL-2) | Growth Percent (SK-MEL-28) | Growth Percent (SA) | Growth Percent (LOX IMVI) | Growth Percent (RPMI-8226) | Growth Percent (M14) | Growth Percent (K-562) | Growth Percent (MALME-3M) | further results
CC1CCC2C1C(OC(=O)/C=C/c1ccccc1)C1(C(C)C)CC(NC(=O)CO)C2(C)O1 (centres unmarked) [Compound 9] | 4000 nM | 8.01% | 160 nM | −15.20% | 830 nM | 9.45% |  |  |  |  |  |  |  |  |  |  |  |  |  | [Aza-Englerin] (ng/mL), single animal ([1]; mice plasma, 50 mg/kg oral gavage in Labrasol, time 0.0833 hr, 50 mg/kg): 13.20 ng/mL; [Aza-Englerin] (ng/mL), single animal ([1]; mice plasma, 50 mg/kg oral gavage in Labrasol, time 0.2500 hr, 50 mg/kg): 22.76 ng/mL and 58.70 ng/mL; [Aza-Englerin] (ng/mL), single animal ([1]; mice plasma, 50 mg/kg oral gavage in Labrasol, time 1.0000 hr, 50 mg/kg): 59.24 ng/mL; [Aza-Englerin] (ng/mL), single animal ([1]; mice plasma, 50 mg/kg oral gavage in Labrasol, time 4.0000 hr, 50 mg/kg): 31.12 ng/mL and 86.81 ng/mL; [Aza-Englerin] (ng/mL), single animal ([1]; mice plasma, 50 mg/kg oral gavage in Labrasol, time 8.0000 hr, 50 mg/kg): 48.21 ng/mL; oral bioavailability ([1]; mice, oral gavage 50 mg/kg in Labrasol): orally bioavailable; absorption ([1]; mice, oral gavage in Labrasol): rapidly absorbed; time for which plasma concentrations are sustained ([1]; mice, oral gavage in Labrasol): greater than 8 h; concentration at 5 min ([1]; mouse, plasma, po, 50 mg/kg, mice plasma, 50 mg/kg oral gavage in Labrasol, time 0.0833 hr, mean of two mice, read-out: [Aza-Englerin] Mean): 10 ng/mL; concentration at 5 min ([1]; mouse, plasma, po, 50 mg/kg, mice plasma, 50 mg/kg oral gavage in Labrasol, time 0.0833 hr, read-out: [Aza-Englerin] (ng/mL), single animal): 6.87 ng/mL; concentration at 0.25 h ([1]; mouse, plasma, po, 50 mg/kg, mice plasma, 50 mg/kg oral gavage in Labrasol, time 0.2500 hr, mean of two mice, read-out: [Aza-Englerin] Mean): 40.7 ng/mL; concentration at 1 h ([1]; mouse, plasma, po, 50 mg/kg, mice plasma, 50 mg/kg oral gavage in Labrasol, time 1.0000 hr, mean of two mice, read-out: [Aza-Englerin] Mean): 73.2 ng/mL; concentration at 1 h ([1]; mouse, plasma, po, 50 mg/kg, mice plasma, 50 mg/kg oral gavage in Labrasol, time 1.0000 hr, read-out: [Aza-Englerin] (ng/mL), single animal): 87.2 ng/mL; concentration at 4 h ([1]; mouse, plasma, po, 50 mg/kg, mice plasma, 50 mg/kg oral gavage in Labrasol, time 4.0000 hr, mean of two mice, read-out: [Aza-Englerin] Mean): 59 ng/mL; concentration at 8 h ([1]; mouse, plasma, po, 50 mg/kg, mice plasma, 50 mg/kg oral gavage in Labrasol, time 8.0000 hr, mean of two mice, read-out: [Aza-Englerin] Mean): 67.8 ng/mL; concentration at 8 h ([1]; mouse, plasma, po, 50 mg/kg, mice plasma, 50 mg/kg oral gavage in Labrasol, time 8.0000 hr, read-out: [Aza-Englerin] (ng/mL), single animal): 87.3 ng/mL; AUC(0-t) ([1]; mouse, mice plasma, 50 mg/kg oral gavage in Labrasol, SE=97.3 hr*ng/mL): 524 ng·h/mL; concentration at 30 min ([2]; mouse, plasma, 100 mg/kg oral gavage in Labrasol, 30 minutes after dosing): ~700 ng/mL; oral bioavailability ([2]; oral gavage 5-100 mg/kg in Labrasol): orally bioavailable
C/C(=C\C(=O)OC1C2C(C)CCC2C2(C)OC1(C(C)C)CC2NC(=O)CO)c1ccccc1 (centres unmarked) [Compound 10] | 3300 nM | 27.88% | 1100 nM | −24.59% | 2200 nM | −8.92% | 94.07% | 101.11% | 101.83% | 105.86% | 92.39% | 104.13% | 117.95% | 117.13% | 100.2% | 125.43% | 100.16% | 92.32% | 95.9% | 
CC(C)[C@@]12C[C@@H](NC(=O)CO)[C@@](C)(O1)[C@@H]1CC[C@@H](C)[C@H]1[C@@H]2OC(=O)/C=C/C1CCCCC1 [Compound 11] | 17000 nM | 99.90% | 5600 nM | 41.34% | 6200 nM | 73.09% |  |  |  |  |  |  |  |  |  |  |  |  |  | 
CC(C)[C@@]12C[C@@H](NC(=O)CO)[C@@](C)(O1)[C@@H]1CC[C@@H](C)[C@H]1[C@@H]2OC(=O)c1ccc2ccccc2c1 [Compound 12] | 5400 nM | 8.40% | 1600 nM | −15.23% | 2200 nM | −18.26% |  |  |  |  |  |  |  |  |  |  |  |  |  | 
CC1CCC2C1C(OC(=O)/C=C/c1ccccc1)C1(C(C)C)CC(NC(=O)CF)C2(C)O1 (centres unmarked) [Compound 31] |  | 104.52% |  | 83.31% |  | 92.63% | 88.63% | 110.24% | 99.56% | 106.48% | 104.8% | 116.95% | 109.79% | 85.46% | 102.48% | 94.34% | 96.67% | 106.42% | 106.46% | Growth Percent (MOLT-4): 96.46%; Growth Percent (HL-60(fB)): 104.52%
